Test results: US8853234B2, “Quinolone analogs and methods related thereto” (Senhwa Biosciences, Inc., priority 2007, dated 2014)
pIC50: −log10 of the molar value.

Legend:
rDNA = assay: Quantitative PCR (QPCR) assay, rRNA inhibition (rDNA); format: cell-based; design: Selectivity: reference not given here; conditions: for Selectivity: not defined in the patent; for pIC50: rRNA inhibition from quantitative PCR assay
Excerpt: In a specific assay embodiment, provided herein is a method for identifying a molecule that modulates ribosomal RNA (rRNA) synthesis, which comprises: contacting cells with a test molecule of Formula (I), (II), (III), (IV), (V), (VI), (VI′), (VII), or (VIII), contacting a ribosomal nucleotide sequence with one or more primers that amplify a portion thereof and a labeled probe that hybridizes to the amplification product, and detecting the amount of the amplification product by hybridization of the labeled probe, whereby a test molecule that reduces or increases the amount of amplification product is identified as a molecule that modulates rRNA synthesis. The labeled probe in some embodiments is added after the primers are added and the rRNA is amplified, and in certain embodiments, the labeled probe and the primers are added at the same time. The portion of ribosomal nucleotide sequence amplified sometimes is at the 5′ end of rDNA.
Real-time quantitative PCR (QPCR) method may be used to detect the changes of the target c-myc and the endogenous reference GAPDH gene copies in the same tube. Generally, cells (15,000 cells/well) are seeded on 96 well flat bottom plates (Corning, N.Y.) and incubated under normal growth conditions for overnight. The next day, the culture medium is exchanged for that containing anticancer drugs at various concentrations and incubated for 4 hrs in a humidified atmosphere of 5% CO2 at 37° C. Total RNA (tRNA) is extracted using the RNeasy 96 Kit (QIAGEN, CA). The concentration of the tRNA is determined by the RiboGreen RNA Quantitation Reagent (Molecular Probes, OR).
A reverse-transcription (RT) reaction may be conducted using 50 ng of tRNA from each well in a 25 μl reaction containing 1× TaqMan RT buffer, 2.5 uM random hexamers, 5.5 mM MgCl2, 0.5 mM each deoxynucleoside triphosphate (dNTP), 30 U MultiScribe Reverse Transcriptase, and 10 U RNase inhibitor. RT reactions are incubated for 10 min at 25° C., reverse-transcribed for 30 min at 48° C., inactivated for 5 min at 95° C., and placed at 4° C. All RT reagents may be purchased from Applied Biosystems, CA.
Real-Time QPCR reaction may be performed in a 50 μl reaction containing the 5 μl of cDNA, 1× Universal PCR Master Mix, 1× c-myc Pre-Developed Primers and Probe set, and 0.8×GAPDH Pre-Developed Primers and Probe set. Because of the relative abundance of GAPDH gene in Hela, GAPDH primers and probe concentration may be adjusted to get accurate threshold cycles (CT) for both genes in the same tube. The threshold cycle (CT) indicates the fractional cycle number at which the amount of amplified target reaches a fixed threshold. By doing so, the GAPDH amplification is stopped before it can limit the common reactants available for amplification of the c-myc. The ΔRn value represents the normalized reporter signal minus the baseline signal. ΔRn increases during PCR as amplicon copy number increases until the reaction approaches a plateau.
The c-myc probe is labeled with 6FAM™ dye-MGB and the GAPDH probe is labeled with VIC™ dye-MTB. Preincubation is performed for 2 min at 50° C. to activate AmpErase UNG enzyme and then for 10 min at 95° C. to activate AmpliTaq DNA Polymerase. DNA is amplified for 40 cycles of 15 sec at 95° C. and 1 min at 60° C. Human c-myc and GAPDH cDNA are amplified, detected, and quantitated in real time using the ABI Prism 7000 Sequence Detection system (Applied Biosystems, CA), which is set to detect both 6-FAM and VIC reporter dyes simultaneously.
The data may be analyzed using the ABI PRISM Sequence Detection System and Microsoft Excel. Relative quantitation is done using the standard curve and comparative CT method at the same time, and both methods gave equivalent results. The cycle at which the amplification plot crosses the CT is known to accurately reflect relative mRNA values. (See, Heid, et al., Genome Res. (1996) 6:986-994; Gibson, et al., Genome Res. (1996) 6:995-1001). […]

[1] = test system: HCT-116 human colorectal carcinoma cells; assay: Alamar Blue (AB) cell proliferation assay, HCT-116; format: cell-based; conditions: 96 h, Alamar Blue cell proliferation inhibition, HCT-116, four days
Description: A representative cell-proliferation assay protocol using Alamar Blue dye (stored at 4° C., use 20 ul per well) is described hereafter.
96-Well Plate Setup and Compound Treatment
a. Split and trypsinize cells.
b. Count cells using hemocytometer.
c. Plate 4,000-5,000 cells per well in 100 μl of medium and seed into a 96-well plate according to the following plate layout. Add cell culture medium only to wells B10 to B12. Wells B1 to B9 have cells but no compound added.
d. Add 100 μl of 2× drug dilution to each well in a concentration shown in the plate layout above. At the same time, add 100 μl of media into the control wells (wells B10 to B12). Total volume is 200 μl/well.
e. Incubate four (4) days at 37° C., 5% CO2 in a humidified incubator.
f. Add 20 μl Alamar Blue reagent to each well.
g. Incubate for four (4) hours at 37° C., 5% CO2 in a humidified incubator.
h. Record fluorescence at an excitation wavelength of 544 nm and emission wavelength of 590 nm using a microplate reader.
In the assays, cells are cultured with a test compound for approximately four days, the dye then is added to the cells and fluorescence of […] dye is detected after approximately four hours. Different types of cells can be utilized in the assays (e.g., HCT-116 human colorectal carcinoma cells, PC-3 human prostatic cancer cells and MiaPaca human pancreatic carcinoma cells). Anti-proliferative effects of representative compounds are provided hereafter.
Representative cassette dosing and bioavailability data are given in Table 8, along with cell proliferation inhibition (from Alamar Blue (AB) assay (e.g., Example 45 herein) and rRNA inhibition (from quantitative PCR (QPCR) assay (e.g., Example 46 herein).

## Cn1c2ccccc2n2c3nc(N4CCOCC4)c(F)cc3c(=O)c(C(=O)NCCN3CCCC3)c12
rDNA
  Selectivity: 7
  pIC50: 6.50
[1]
  pIC50: 6.51

## O=C(NCCN1CCCC1)c1c(=O)c2ccc(N3CCOCC3)nc2n2c1sc1ccccc12
rDNA
  Selectivity: 162
  pIC50: 7.28
[1]
  pIC50: 7.23

## CN1CCCC1CCNC(=O)c1c(=O)c2ccc(N3CCOCC3)nc2n2c1sc1ccccc12 (stereo not drawn)
rDNA
  Selectivity: 42
  pIC50: 6.60
[1]
  pIC50: 7.26

## Cn1c2ccccc2n2c3nc(N4CCOCC4)ccc3c(=O)c(C(=O)NCCN3CCCC3)c12
rDNA
  Selectivity: 3
  pIC50: 6.58
[1]
  pIC50: 7.12

## CN1CCCC1CCNC(=O)c1cn2c3c(c(N4CCOCC4)c(F)cc3c1=O)Oc1ccccc1-2 (stereo not drawn)
rDNA
  Selectivity: 12
  pIC50: 6.39
[1]
  pIC50: 6.41

## CN1CCCC1CCNC(=O)c1c(=O)c2cc(F)c(N3CCOCC3)nc2n2c1sc1ccccc12 (stereo not drawn)
rDNA
  Selectivity: 10
  pIC50: 6.05
[1]
  pIC50: 6.47

## O=C(NCCN1CCCC1)c1c(=O)c2cc(F)c(N3CCOCC3)nc2n2c1sc1ccccc12
rDNA
  Selectivity: 70
  pIC50: 6.90
[1]
  pIC50: 7.09

## CN1CCN(C(=O)c2c(=O)c3cc(F)c(N4CCOCC4)nc3n3c2sc2ccccc23)CC1
rDNA
  Selectivity: 7
  pIC50: 5.94
[1]
  pIC50: 6.41

## O=C(NCCN1CCC(O)C1)c1c(=O)c2cc(F)c(N3CCOCC3)nc2n2c1sc1ccccc12 (stereo not drawn)
rDNA
  Selectivity: 10
  pIC50: 8.00
[1]
  pIC50: 7.26

## CN1CCC(N(C)C(=O)c2c(=O)c3cc(F)c(N4CCOCC4)nc3n3c2sc2ccccc23)C1 (stereo not drawn)
rDNA
  Selectivity: 5
  pIC50: 6.42
[1]
  pIC50: 6.76

## O=C(NCCNCC1CCCO1)c1c(=O)c2ccc(N3CCOCC3)nc2n2c1sc1ccccc12 (stereo not drawn)
rDNA
  Selectivity: 119
  pIC50: 7.40
[1]
  pIC50: 6.94

## O=C(NCCN1CC=CC1)c1c(=O)c2ccc(N3CCOCC3)nc2n2c1sc1ccccc12
rDNA
  Selectivity: 22
  pIC50: 7.19
[1]
  pIC50: 6.89

## Cn1cncc1CNC(=O)c1c(=O)c2ccc(N3CCOCC3)nc2n2c1sc1ccccc12
rDNA
  Selectivity: 60
  pIC50: 6.58
[1]
  pIC50: 6.76

## O=C(c1c(=O)c2ccc(N3CCOCC3)nc2n2c1sc1ccccc12)N1CCN(c2ncccn2)CC1
rDNA
  Selectivity: 13
  pIC50: 6.24
[1]
  pIC50: 6.34

## O=C(c1c(=O)c2ccc(N3CCOCC3)nc2n2c1sc1ccccc12)N1CCN(c2ccccn2)CC1
rDNA
  Selectivity: 17
  pIC50: 6.14
[1]
  pIC50: 6.68

## O=C(NCCN1CC=CC1)c1cn2c3c(c(N4CCC(c5cnccn5)C4)c(F)cc3c1=O)Oc1cc3ccccc3cc1-2 (stereo not drawn)
rDNA
  Selectivity: 24
  pIC50: 5.98
[1]
  pIC50: 6.40

## O=C(NCCN1CC=CCC1)c1c(=O)c2ccc(N3CCOCC3)nc2n2c1sc1ccccc12
rDNA
  Selectivity: 64
  pIC50: 7.49
[1]
  pIC50: 7.01

## O=C(NCCN1CC=CC1)c1c(=O)c2cc(F)c(N3CCOCC3)nc2n2c1sc1ccccc12
rDNA
  Selectivity: 3
  pIC50: 7.38
[1]
  pIC50: 6.41

## O=C(NCCNCCF)c1c(=O)c2ccc(N3CCOCC3)nc2n2c1sc1ccccc12
rDNA
  Selectivity: 48
  pIC50: 7.23
[1]
  pIC50: 6.87

## O=C(NCCNCC(F)(F)F)c1c(=O)c2ccc(N3CCOCC3)nc2n2c1sc1ccccc12
rDNA
  Selectivity: 15
  pIC50: 6.30
[1]
  pIC50: 6.27

## O=C(NCCNCCF)c1c(=O)c2cc(F)c(N3CCOCC3)nc2n2c1sc1ccccc12
rDNA
  Selectivity: 70
  pIC50: 6.83
[1]
  pIC50: 6.32

## O=C(NCCn1ccnc1)c1c(=O)c2ccc(N3CCOCC3)nc2n2c1sc1ccccc12
rDNA
  Selectivity: 24
  pIC50: 6.37
[1]
  pIC50: 6.33

## Cn1ccnc1CNC(=O)c1c(=O)c2ccc(N3CCOCC3)nc2n2c1sc1ccccc12
rDNA
  Selectivity: 9
  pIC50: 6.76
[1]
  pIC50: 6.84

## O=C(NCCN1CCOCC1)c1c(=O)c2ccc(N3CCOCC3)nc2n2c1sc1ccccc12
rDNA
  Selectivity: 16
  pIC50: 6.30
[1]
  pIC50: 6.34

## Cn1ccnc1CNC(=O)c1c(=O)c2cc(F)c(N3CCOCC3)nc2n2c1sc1ccccc12
rDNA
  Selectivity: 11
  pIC50: 6.87
[1]
  pIC50: 6.70

## Cc1nccn1CCNC(=O)c1c(=O)c2ccc(N3CCOCC3)nc2n2c1sc1ccccc12
rDNA
  Selectivity: 21
  pIC50: 7.08
[1]
  pIC50: 6.78

## O=C(NNC1=NCCN1)c1c(=O)c2cc(F)c(N3CCOCC3)nc2n2c1sc1ccccc12
rDNA
  Selectivity: 893
  pIC50: 7.55
[1]
  pIC50: 9.00

## Cn1c2ccccc2n2c3nc(N4CCOCC4)c(F)cc3c(=O)c(C(=O)N3CCN4CCCC4C3)c12 (stereo not drawn)
rDNA
  Selectivity: 10
  pIC50: 6.08
[1]
  pIC50: 6.07

## CN1CCN(c2ccc3c(=O)c(C(=O)NCc4ccccn4)c4sc5ccccc5n4c3n2)CC1
rDNA
  Selectivity: 111
  pIC50: 6.95
[1]
  pIC50: 6.83

## O=C(NCCNC1CC1)c1c(=O)c2cc(F)c(N3CCOCC3)nc2n2c1sc1ccccc12
rDNA
  Selectivity: 53
  pIC50: 6.61
[1]
  pIC50: 6.88

## CN1CCCCC1CNC(=O)c1c(=O)c2ccc(N3CCOCC3)nc2n2c1sc1ccccc12 (stereo not drawn)
rDNA
  Selectivity: 2778
  pIC50: 8.05
[1]
  pIC50: 8.22

## CN1CCCN(C(=O)c2c(=O)c3cc(F)c(N4CCOCC4)nc3n3c2sc2ccccc23)CC1
rDNA
  Selectivity: 10
  pIC50: 6.63
[1]
  pIC50: 6.52

## Cn1ccnc1CNC(=O)c1c(=O)c2cc(N3CCOCC3)nnc2n2c1sc1ccccc12
rDNA
  Selectivity: 53
  pIC50: 6.48
[1]
  pIC50: 6.76

## CN1CCCC(NC(=O)c2c(=O)c3cc(F)c(N4CCOCC4)nc3n3c2sc2ccccc23)C1 (stereo not drawn)
rDNA
  Selectivity: 862
  pIC50: 7.54
[1]
  pIC50: 7.57

## O=C(NCC1CCCN1)c1c(=O)c2cc(F)c(N3CCOCC3)nc2n2c1sc1ccccc12 (stereo not drawn)
rDNA
  Selectivity: 25
  pIC50: 7.80
[1]
  pIC50: 8.05

## CN1CCCCC1CNc1ccc2c(=O)c(C(=O)NCc3ccncc3)c3sc4ccccc4n3c2n1 (stereo not drawn)
rDNA
  Selectivity: 39
  pIC50: 7.17
[1]
  pIC50: 8.10

## CN1CCCC1CNC(=O)c1c(=O)c2cc(F)c(N3CCOCC3)nc2n2c1sc1ccccc12 (stereo not drawn)
rDNA
  Selectivity: 45
  pIC50: 6.42
[1]
  pIC50: 6.89

## CN1CCN(c2nc3c(cc2F)c(=O)c(C(=O)NCc2cn(C)cn2)c2sc4ccccc4n23)CC1
rDNA
  Selectivity: 69
  pIC50: 6.86
[1]
  pIC50: 6.52
